ChEMBL document CHEMBL4311999, “3-Hydrazinoisatin-based benzenesulfonamides as novel carbonic anhydrase inhibitors endowed with anticancer activity: Synthesis, in vitro biological evaluation and in silico insights” (Eur J Med Chem, 2019)

Key:
Carbonic anhydrase 9 [1] = target: T1, Carbonic anhydrase 9 (Homo sapiens, UniProt Q16790); experiment: Inhibition of human recombinant carbonic anhydrase 9 by stopped flow CO2 hydration assay
Carbonic anhydrase 9 [2] = target: T1, Carbonic anhydrase 9; experiment: Inhibition of recombinant human carbonic anhydrase 9 preincubated for 15 mins by phenol red dye based stopped flow CO2 hydration assay
CCRF-CEM = experiment: Growth inhibition of human CCRF-CEM cells at 10 uM incubated for 48 hrs by sulforhodamine B assay relative to control; format: functional; details: read-out: GI
RPMI-8226 = experiment: Growth inhibition of human RPMI8226 cells at 10 uM incubated for 48 hrs by sulforhodamine B assay relative to control; format: functional; details: RPMI-8226, 48 h, read-out: GI
EKVX = experiment: Growth inhibition of human EKVX cells at 10 uM incubated for 48 hrs by sulforhodamine B assay relative to control; format: functional; details: read-out: GI
A549 = experiment: Growth inhibition of human A549/ATCC cells at 10 uM incubated for 48 hrs by sulforhodamine B assay relative to control; format: functional; details: A549, 48 h, read-out: GI
NCI-H226 = experiment: Growth inhibition of human NCI-H226 cells at 10 uM incubated for 48 hrs by sulforhodamine B assay relative to control; format: functional; details: NCI-H226, 48 h, read-out: GI
HOP-92 = experiment: Growth inhibition of human HOP92 cells at 10 uM incubated for 48 hrs by sulforhodamine B assay relative to control; format: functional; details: HOP-92, 48 h, read-out: GI
NCI-H460 = experiment: Growth inhibition of human NCI-H460 cells at 10 uM incubated for 48 hrs by sulforhodamine B assay relative to control; format: functional; details: NCI-H460, 48 h, read-out: GI
NCI-H522 = experiment: Growth inhibition of human NCI-H522 cells at 10 uM incubated for 48 hrs by sulforhodamine B assay relative to control; format: functional; details: NCI-H522, 48 h, read-out: GI
HCT-116 = experiment: Growth inhibition of human HCT116 cells at 10 uM incubated for 48 hrs by sulforhodamine B assay relative to control; format: functional; details: HCT-116, 48 h, read-out: GI
HCT-15 = experiment: Growth inhibition of human HCT15 cells at 10 uM incubated for 48 hrs by sulforhodamine B assay relative to control; format: functional; details: HCT-15, 48 h, read-out: GI
HT-29 = experiment: Growth inhibition of human HT-29 cells at 10 uM incubated for 48 hrs by sulforhodamine B assay relative to control; format: functional; details: HT-29, 48 h, read-out: GI
KM12 = experiment: Growth inhibition of human KM12 cells at 10 uM incubated for 48 hrs by sulforhodamine B assay relative to control; format: functional; details: KM12, 48 h, read-out: GI
SW-620 = experiment: Growth inhibition of human SW620 cells at 10 uM incubated for 48 hrs by sulforhodamine B assay relative to control; format: functional; details: SW-620, 48 h, read-out: GI
SNB-19 = experiment: Growth inhibition of human SNB19 cells at 10 uM incubated for 48 hrs by sulforhodamine B assay relative to control; format: functional; details: SNB-19, 48 h, read-out: GI
U-251 = experiment: Growth inhibition of human U251 cells at 10 uM incubated for 48 hrs by sulforhodamine B assay relative to control; format: functional; details: U-251, 48 h, read-out: GI
SK-MEL-2 = experiment: Growth inhibition of human SK-MEL-2 cells at 10 uM incubated for 48 hrs by sulforhodamine B assay relative to control; format: functional; details: SK-MEL-2, 48 h, read-out: GI
MDA-MB-231 = experiment: Growth inhibition of human MDA-MB-231 cells at 10 uM incubated for 48 hrs by sulforhodamine B assay relative to control; format: functional; details: MDA-MB-231, 48 h, read-out: GI
MCF7 = experiment: Growth inhibition of human MCF7 cells at 10 uM incubated for 48 hrs by sulforhodamine B assay relative to control; format: functional; details: MCF7, 48 h, read-out: GI
DU-145 = experiment: Growth inhibition of human DU145 cells at 10 uM incubated for 48 hrs by sulforhodamine B assay relative to control; format: functional; details: DU-145, 48 h, read-out: GI
UO-31 = experiment: Growth inhibition of human UO31 cells at 10 uM incubated for 48 hrs by sulforhodamine B assay relative to control; format: functional; details: UO-31, 48 h, read-out: GI
PC-3 = experiment: Growth inhibition of human PC3 cells at 10 uM incubated for 48 hrs by sulforhodamine B assay relative to control; format: functional; details: PC-3, 48 h, read-out: GI
TK-10 = experiment: Growth inhibition of human TK10 cells at 10 uM incubated for 48 hrs by sulforhodamine B assay relative to control; format: functional; details: TK-10, 48 h, read-out: GI
SN12C = experiment: Growth inhibition of human SN12C cells at 10 uM incubated for 48 hrs by sulforhodamine B assay relative to control; format: functional; details: read-out: GI
CAKI-1 = experiment: Growth inhibition of human Caki1 cells at 10 uM incubated for 48 hrs by sulforhodamine B assay relative to control; format: functional; details: CAKI-1, 48 h, read-out: GI
RXF 393 = experiment: Growth inhibition of human RXF393 cells at 10 uM incubated for 48 hrs by sulforhodamine B assay relative to control; format: functional; details: RXF 393, 48 h, read-out: GI
ACHN = experiment: Growth inhibition of human ACHN cells at 10 uM incubated for 48 hrs by sulforhodamine B assay relative to control; format: functional; details: read-out: GI
786-0 = experiment: Growth inhibition of human 786-0 cells at 10 uM incubated for 48 hrs by sulforhodamine B assay relative to control; format: functional; details: 786-0, 48 h, read-out: GI
A498 = experiment: Growth inhibition of human A498 cells at 10 uM incubated for 48 hrs by sulforhodamine B assay relative to control; format: functional; details: A498, 48 h, read-out: GI
OVCAR-8 = experiment: Growth inhibition of human OVCAR8 cells at 10 uM incubated for 48 hrs by sulforhodamine B assay relative to control; format: functional; details: OVCAR-8, 48 h, read-out: GI
NCI/ADR-RES = experiment: Growth inhibition of human NCI/ADR-RES cells at 10 uM incubated for 48 hrs by sulforhodamine B assay relative to control; format: functional; details: read-out: GI
OVCAR-4 = experiment: Growth inhibition of human OVCAR4 cells at 10 uM incubated for 48 hrs by sulforhodamine B assay relative to control; format: functional; details: OVCAR-4, 48 h, read-out: GI
UACC-257 = experiment: Growth inhibition of human UACC257 cells at 10 uM incubated for 48 hrs by sulforhodamine B assay relative to control; format: functional; details: UACC-257, 48 h, read-out: GI
UACC-62 = experiment: Growth inhibition of human UACC62 cells at 10 uM incubated for 48 hrs by sulforhodamine B assay relative to control; format: functional; details: UACC-62, 48 h, read-out: GI
SK-MEL-5 = experiment: Growth inhibition of human SK-MEL-5 cells at 10 uM incubated for 48 hrs by sulforhodamine B assay relative to control; format: functional; details: SK-MEL-5, 48 h, read-out: GI
BT-549 = experiment: Growth inhibition of human BT549 cells at 10 uM incubated for 48 hrs by sulforhodamine B assay relative to control; format: functional; details: BT-549, 48 h, read-out: GI
T47D = experiment: Growth inhibition of human T47D cells at 10 uM incubated for 48 hrs by sulforhodamine B assay relative to control; format: functional; details: read-out: GI
MDA-MB-468 = experiment: Growth inhibition of human MDA-MB-468 cells at 10 uM incubated for 48 hrs by sulforhodamine B assay relative to control; format: functional; details: MDA-MB-468, 48 h, read-out: GI

Work on `NS(=O)(=O)c1ccc(CC/N=C2\NC(=O)/C(=C3/C(=O)Nc4ccc(F)cc43)S2)cc1` yielded a Ki (Carbonic anhydrase 9 [1]) of 287 nM.

In the case of `NS(=O)(=O)c1ccc(N/N=C2\C(=O)N(Cc3ccccc3)c3ccccc32)cc1`, the Ki (Carbonic anhydrase 9 [2]) is reported as 27.7 nM, the inhibition of growth at 10 µM (CCRF-CEM) is reported as 36% and the inhibition of growth at 10 µM (RPMI-8226) is reported as 38%. It also gave an inhibition of growth at 10 µM (EKVX) of 13%, an inhibition of growth at 10 µM (A549) of 25% and an inhibition of growth at 10 µM (NCI-H226) of 21%. For the same compound, the inhibition of growth at 10 µM (HOP-92) was 34%, the inhibition of growth at 10 µM (NCI-H460) was 20% and the inhibition of growth at 10 µM (NCI-H522) was 46%. The inhibition of growth at 10 µM (HCT-116) was 28%, the inhibition of growth at 10 µM (HCT-15) was 13% and the inhibition of growth at 10 µM (HT-29) was 21%. The inhibition of growth at 10 µM (KM12) was 10%, the inhibition of growth at 10 µM (SW-620) was 18% and the inhibition of growth at 10 µM (SNB-19) was 13%. The inhibition of growth at 10 µM (U-251) was 17%, the inhibition of growth at 10 µM (SK-MEL-2) was 13% and the inhibition of growth at 10 µM (MDA-MB-231) was 19%. For the same compound, the inhibition of growth at 10 µM (MCF7) was 21%, the inhibition of growth at 10 µM (DU-145) was 10% and the inhibition of growth at 10 µM (UO-31) was 38%. The inhibition of growth at 10 µM (PC-3) was 25%, the inhibition of growth at 10 µM (TK-10) was 19% and the inhibition of growth at 10 µM (SN12C) was 19%. The inhibition of growth at 10 µM (CAKI-1) was 20%, the inhibition of growth at 10 µM (RXF 393) was 10% and the inhibition of growth at 10 µM (ACHN) was 14%. It also gave an inhibition of growth at 10 µM (786-0) of 22%, an inhibition of growth at 10 µM (A498) of 10% and an inhibition of growth at 10 µM (OVCAR-8) of 17%. It also gave an inhibition of growth at 10 µM (NCI/ADR-RES) of 20%, an inhibition of growth at 10 µM (OVCAR-4) of 21% and an inhibition of growth at 10 µM (UACC-257) of 11%. It also gave an inhibition of growth at 10 µM (UACC-62) of 37%, an inhibition of growth at 10 µM (SK-MEL-5) of 12% and an inhibition of growth at 10 µM (BT-549) of 16%. For the same compound, the inhibition of growth at 10 µM (T47D) was 42% and the inhibition of growth at 10 µM (MDA-MB-468) was 27%.
